From patent publication US20250387399A1, “TREATMENT OF A SELECTIVE POPULATION OF PATIENTS HAVING DEMENTIA WITH LEWY BODIES” (EIP Pharma, LLC, priority 2021, published 2025)

Key:
Format in all cases: in vivo, human
[1] = test system: patients with mild-to-moderate DLB; assay: AscenD-LB phase 2 study: International Shopping List Test (ISLT); settings: patients with baseline plasma ptau181 <2.2 pg/mL, 16 weeks
Procedure: (§1) With the objective of uniformly achieving a target average plasma drug concentration of 20 nM patients, dosing regimen after randomization to neflamapimod or placebo was based on weight: • Weight<80 kg: 40 mg neflamapimod capsule or matching placebo capsule BID • Weight≥80 kg: 40 mg neflamapimod capsule or matching placebo capsule TID
(§2) As a result, efficacy analyses compared: (1) all neflamapimod (i.e., including 40 mg BID and 40 mg TID) vs. placebo; (2) 40 mg TID (dose group that achieved target concentration) vs. placebo; and (3) 40 mg TID vs. placebo TID.
(§3) Plasma ptau181 levels were determined by SIMOA pTau181 Assay (Quanterix) at the VU Medical Center, where the in-house defined cut-off for tau pathology was set at 2.2 pg/mL.

[2] = AscenD-LB phase 2 study: plasma drug concentration
Procedure: as §1
Trough plasma drug concentrations 50% lower with 40 mg BID vs. 40 mg TID

[3] = test system: patients with mild-to-moderate DLB; assay: AscenD-LB phase 2 study: Clinical Dementia Rating Scale sum-of-boxes (CDR-SB)
Procedure: as §1, §2, §3

[4] = test system: patients with mild-to-moderate DLB; assay: AscenD-LB phase 2 study: Timed Up and Go (TUG) test
Procedure: as §1, §2, §3

[5] = test system: patients with mild-to-moderate DLB; assay: AscenD-LB phase 2 study: treatment effect by baseline plasma ptau181 status (all major endpoints)
Procedure: Up to half of patients with DLB have tau pathology, or “AD copathology” (van der Lee et al, 2021) and such co-pathology may impact response to cholinesterase inhibitors (Graff-Radford et al, 2012). In patients with DLB, plasma phospho-tau (either ptau217 or ptau181) correlates with tau-PET signal in the temporal cortex and predicts abnormal tau-PET status and CSF β-amyloid status (Hall et al, 2021). Accordingly, plasma ptau181 levels were assessed in plasma samples obtained during the screening phase of AscenD-LB. The results on the association of tau pathology to treatment outcome in AscenD-LB are described below.
as §3

[6] = test system: patients with mild-to-moderate DLB; assay: AscenD-LB phase 2 study: DLB specific Neuropsychological Test Battery (NTB) z-score
Procedure: as §1, §2, §3

[7] = test system: patients with mild-to-moderate DLB; assay: AscenD-LB phase 2 study: Attention Composite z-score
Procedure: as §1, §2, §3

[8] = 40 mg TID vs. all placebo, patients with baseline plasma ptau181 <2.2 pg/mL, 16 weeks
[9] = 40 mg TID vs. placebo TID, baseline plasma ptau181 < 2.2 pg/mL
[10] = 40 mg TID vs. placebo TID, patients with baseline plasma ptau181 <2.2 pg/mL, 16 weeks
[11] = 40 mg TID vs. placebo, baseline plasma ptau181 < 2.2 pg/mL
[12] = all neflamapimod (40 mg BID and TID) vs. placebo, baseline plasma ptau181 < 2.2 pg/mL
[13] = overall population, 91-patient, 16-week study, main analysis

O=c1ncn2nc(Sc3ccc(F)cc3F)ccc2c1-c1c(Cl)cccc1Cl [neflamapimod, 5-(2,6-dichlorophenyl)-2-(2,4-difluorophenylthio)-6H-pyrimido [1,6-b]pyridazin-6-one]
ISLD immediate recall, difference vs. placebo (LMMRM) ([1]; 40 mg TID vs. all placebo): 2.1 words | ISLD recognition, difference vs. placebo (LMMRM) ([1]; 40 mg TID vs. all placebo): 1.4 words | ISLD immediate recall, difference vs. placebo TID (LMMRM) ([1]; 40 mg TID vs. placebo TID): 2.3 words | ISLD recognition, difference vs. placebo TID (LMMRM) ([1]; 40 mg TID vs. placebo TID): 0.9 words | shortfall from target average plasma drug concentration (20 nM) ([2]; 40 mg BID (weight <80 kg)): 30-40% | trough plasma drug concentrations, lower with 40 mg BID vs. 40 mg TID ([2]; 40 mg BID vs. 40 mg TID): 50% | attainment of target average plasma drug concentration (20 nM) ([2]; 40 mg TID (weight ≥80 kg)): achieved target plasma drug concentration | CDR-SB, difference vs. placebo (LMMRM) [3, 8]: −0.60 points | CDR-SB, Effect size, improvement in neflamapimod 40 mg TID vs. placebo TID [3, 9]: 0.98 | CDR-SB, difference vs. placebo TID (LMMRM) [3, 10]: −0.93 points | CDR-SB, Effect size, improvement in neflamapimod 40 mg TID vs. placebo [3, 11]: 0.70 | CDR-SB, Effect size, improvement in all neflamapimod vs. placebo [3, 12]: 0.58 | cognition and function assessed by CDR-SB, relative to placebo [3, 13]: significant improvement | TUG, difference vs. placebo (LMMRM) [4, 8]: -3.1 s | Timed up and Go, Effect size, improvement in neflamapimod 40 mg TID vs. placebo TID [4, 9]: 0.70 | TUG, difference vs. placebo TID (LMMRM) [4, 10]: -3.5 s | Timed up and Go, Effect size, improvement in neflamapimod 40 mg TID vs. placebo [4, 11]: 0.74 | Timed up and Go, Effect size, improvement in all neflamapimod vs. placebo [4, 12]: 0.40 | motor function assessed by TUG test, relative to placebo [4, 13]: significant improvement | treatment effect on NTB z-score, attention z-score, TUG, CDR-SB (descriptive evaluation) ([5]; patients below the threshold (2.2 pg/mL) for having tau pathology): positive treatment effects | treatment effect on NTB z-score, attention z-score, TUG, CDR-SB (descriptive evaluation) ([5]; patients with baseline plasma ptau181 above the threshold (2.2 pg/mL), i.e. with tau pathology): no discernible treatment effect | magnitude of treatment effect relative to placebo for the individual endpoints, ptau181 <2.2 pg/mL population compared to overall population ([5]; plasma ptau181 <2.2 pg/mL at baseline vs. overall population): 1.5 to 2.0 fold | NTB z-score, difference vs. placebo (LMMRM) ([6]; 40 mg TID vs. all placebo, patients with baseline plasma ptau181 <2.2 pg/mL, 16 weeks, not significant): 0.21 | NTB, Effect size, improvement in neflamapimod 40 mg TID vs. placebo TID [6, 9]: 0.61 | NTB z-score, difference vs. placebo TID (LMMRM) ([6]; 40 mg TID vs. placebo TID, patients with baseline plasma ptau181 <2.2 pg/mL, 16 weeks, not significant): 0.25 | NTB, Effect size, improvement in neflamapimod 40 mg TID vs. placebo [6, 11]: 0.56 | NTB, Effect size, improvement in all neflamapimod vs. placebo [6, 12]: 0.15 | cognition assessed by NTB, relative to placebo [6, 13]: significant improvement | attention composite z-score, difference vs. placebo (LMMRM) [7, 8]: 0.42 z-score | Attention, Effect size, improvement in neflamapimod 40 mg TID vs. placebo TID [7, 9]: 0.70 | attention composite z-score, difference vs. placebo TID (LMMRM) [7, 10]: 0.46 z-score | Attention, Effect size, improvement in neflamapimod 40 mg TID vs. placebo [7, 11]: 0.78 | Attention, Effect size, improvement in all neflamapimod vs. placebo [7, 12]: 0.29
